The source made the active and inactive calls. The calls are words filed in the database; no cut-off is given here.

In general, IC50 refers to the concentration that gives 50% inhibition.

The target in data set [1] is T1, Prostaglandin E2 receptor EP3 subtype (Homo sapiens, UniProt P43115).
T1 sequence (P43115 whole entry): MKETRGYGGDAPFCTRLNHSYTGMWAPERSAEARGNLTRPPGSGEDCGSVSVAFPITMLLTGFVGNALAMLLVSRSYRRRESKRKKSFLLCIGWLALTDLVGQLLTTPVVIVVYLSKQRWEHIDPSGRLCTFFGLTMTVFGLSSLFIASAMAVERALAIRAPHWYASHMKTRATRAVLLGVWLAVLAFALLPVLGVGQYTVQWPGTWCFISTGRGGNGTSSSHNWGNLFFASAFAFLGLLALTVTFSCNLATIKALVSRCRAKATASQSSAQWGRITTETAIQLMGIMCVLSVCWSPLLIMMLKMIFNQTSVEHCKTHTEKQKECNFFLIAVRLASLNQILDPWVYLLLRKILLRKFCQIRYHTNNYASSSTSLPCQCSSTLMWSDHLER
Kind of data set: Displacement of [3H]PGE2 from human EP3 receptor. A general note: Loss of bound radioactivity is the signal in a displacement assay; it reports binding, not function.

Data set [2] deals with T2, Prostaglandin E2 receptor EP3 subtype (Homo sapiens) (UniProt P43115).
T2 sequence (whole entry): T1 sequence (P43115 whole entry)
In words: Displacement of [3H]PGE2 from human EP3 receptor in presence of 10% human serum.

Data set [3] in a line: Protein binding in plasma by HSA-HPLC method. Conditions: human, read-out: PB (converted). The data set is classed as ADME, cell-free.
Data set [4] can be described thus: Metabolic stability in rat liver microsomes assessed as compound remaining after 30 mins. Conditions: read-out: Stability. The class given is ADME, Microsome.
Data set [5] can be described thus: Metabolic stability in human liver microsomes assessed as compound remaining after 30 mins. Conditions: read-out: Stability. The data set is classed as ADME, Microsome. On the technique in general: Microsomes from liver hold many membrane-bound enzymes, among them those of drug oxidation.
The target in data set [6] is T2, Prostaglandin E2 receptor EP3 subtype (Homo sapiens). Kind of data set: Antagonist activity at human EP3 receptor at 0.1 uM by FLIPR assay. The data set is classed as functional. Details: scale not given: the % may be the effect or the level left.
Data set [7] shares this target. In words: Antagonist activity at human EP3 receptor at 10 uM by FLIPR assay. The data set is classed as functional. Further details: scale not given: the % may be the effect or the level left.
In data set [8] the target is T3, Prostaglandin E2 receptor EP1 subtype (Homo sapiens) (UniProt P34995).
T3 sequence (whole entry): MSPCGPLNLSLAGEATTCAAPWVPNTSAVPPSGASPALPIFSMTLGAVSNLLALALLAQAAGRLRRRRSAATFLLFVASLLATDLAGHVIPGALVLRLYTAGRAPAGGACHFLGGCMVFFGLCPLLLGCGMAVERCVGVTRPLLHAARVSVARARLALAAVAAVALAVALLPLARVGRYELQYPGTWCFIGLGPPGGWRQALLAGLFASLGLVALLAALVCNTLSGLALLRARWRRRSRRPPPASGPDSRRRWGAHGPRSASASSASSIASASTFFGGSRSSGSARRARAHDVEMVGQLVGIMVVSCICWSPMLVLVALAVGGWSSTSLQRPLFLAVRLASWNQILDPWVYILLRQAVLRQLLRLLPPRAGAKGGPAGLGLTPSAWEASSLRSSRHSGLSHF
Kind of data set: Activity at EP1 receptor at 10 uM by FLIPR assay.

Data set [9] concerns the target T3, Prostaglandin E2 receptor EP1 subtype (Homo sapiens). In words: Activity at EP1 receptor at 1 uM by FLIPR assay.
Data set [10] shares this target. In words: Activity at EP1 receptor at 0.1 uM by FLIPR assay.
Data set [11] addresses T4, Prostaglandin E2 receptor EP4 subtype (Homo sapiens, UniProt P35408). In words: Activity at EP4 receptor at 10 uM by FLIPR assay.
Data set [12] deals with T4, Prostaglandin E2 receptor EP4 subtype. In words: Activity at EP4 receptor at 1 uM by FLIPR assay.
The target is the same in data set [13]. Kind of data set: Activity at EP4 receptor at 0.1 uM by FLIPR assay.
In data set [14] the target is T5, Prostaglandin F2-alpha receptor (Homo sapiens, UniProt P43088). In words: Activity at FP receptor at 10 uM by FLIPR assay.
T5 sequence (P43088 whole entry): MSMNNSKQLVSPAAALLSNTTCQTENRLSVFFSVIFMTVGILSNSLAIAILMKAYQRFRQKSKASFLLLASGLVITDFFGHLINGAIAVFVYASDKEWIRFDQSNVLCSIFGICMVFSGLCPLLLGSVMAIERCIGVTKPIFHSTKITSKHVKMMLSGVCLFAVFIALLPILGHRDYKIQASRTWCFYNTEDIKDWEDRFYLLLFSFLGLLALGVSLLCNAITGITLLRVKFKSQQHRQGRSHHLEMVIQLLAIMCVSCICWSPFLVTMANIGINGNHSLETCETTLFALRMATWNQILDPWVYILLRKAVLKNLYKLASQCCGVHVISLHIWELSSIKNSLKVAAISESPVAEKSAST
The target of data set [15] is T5, Prostaglandin F2-alpha receptor. Kind of data set: Activity at FP receptor at 1 uM by FLIPR assay.
The target is the same in data set [16]. In words: Activity at FP receptor at 0.1 uM by FLIPR assay.
Data set [17] deals with T6, Thromboxane A2 receptor (Homo sapiens) (UniProt P21731).
T6 sequence (whole entry): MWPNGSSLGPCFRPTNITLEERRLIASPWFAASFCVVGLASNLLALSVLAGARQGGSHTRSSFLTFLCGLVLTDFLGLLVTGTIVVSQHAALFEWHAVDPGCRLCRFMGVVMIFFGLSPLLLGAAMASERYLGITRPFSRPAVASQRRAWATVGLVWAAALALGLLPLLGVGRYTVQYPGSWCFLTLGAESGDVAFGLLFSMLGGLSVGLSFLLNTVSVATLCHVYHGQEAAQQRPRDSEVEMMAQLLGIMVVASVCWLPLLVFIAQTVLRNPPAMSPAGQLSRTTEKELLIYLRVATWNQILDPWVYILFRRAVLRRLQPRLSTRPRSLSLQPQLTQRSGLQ
In words: Activity at TP receptor at 10 uM by FLIPR assay.

For data set [18], the target named is T6, Thromboxane A2 receptor (Homo sapiens). Kind of data set: Activity at TP receptor at 1 uM by FLIPR assay.
Data set [19] shares this target. In words: Activity at TP receptor at 0.1 uM by FLIPR assay.
Data set [20] has as its target T2, Prostaglandin E2 receptor EP3 subtype (Homo sapiens). In words: Full displacement of [3H]PGE2 from human EP3 receptor at 20 uM.
The test system of data set [21] is Platelet. Kind of data set: Inhibition of PGE2/collagen-induced platelet aggregation rat platelets rich plasma. The class given is functional.
Data set [22] relates to Platelet. In words: Inhibition of PGE2/collagen-induced platelet aggregation human platelets rich plasma. The class given is functional.
In data set [23] the target is T7, Prostaglandin E2 receptor EP1 subtype (Homo sapiens, UniProt P34995).
T7 sequence (P34995 whole entry): T3 sequence (whole entry)
Kind of data set: Binding affinity to human EP1 receptor by radioligand displacement assay.

Data set [24] concerns the target Prostaglandin E2 receptor EP2 subtype (Homo sapiens, UniProt P43116). Kind of data set: Binding affinity to human EP2 receptor by radioligand displacement assay.
Data set [25] concerns the target T4, Prostaglandin E2 receptor EP4 subtype. Kind of data set: Binding affinity to human EP4 receptor by radioligand displacement assay.
Data set [26] addresses T5, Prostaglandin F2-alpha receptor. In words: Binding affinity to human FP receptor by radioligand displacement assay.
The target of a further data set is Prostacyclin receptor (Homo sapiens, UniProt P43119). Kind of data set: Binding affinity to human IP receptor by radioligand displacement assay.
Chain of Prostacyclin receptor (P43119 whole entry): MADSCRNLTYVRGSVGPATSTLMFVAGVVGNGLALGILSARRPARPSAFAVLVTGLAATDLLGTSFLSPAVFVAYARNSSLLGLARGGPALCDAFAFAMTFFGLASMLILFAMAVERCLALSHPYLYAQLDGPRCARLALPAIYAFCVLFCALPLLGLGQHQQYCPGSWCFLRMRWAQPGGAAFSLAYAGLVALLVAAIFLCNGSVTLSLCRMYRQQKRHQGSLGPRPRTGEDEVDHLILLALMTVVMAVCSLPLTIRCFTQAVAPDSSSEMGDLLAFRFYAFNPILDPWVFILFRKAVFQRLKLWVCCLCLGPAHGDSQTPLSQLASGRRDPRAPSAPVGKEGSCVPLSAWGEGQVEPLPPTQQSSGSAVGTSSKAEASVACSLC
Data set [27] concerns the target T2, Prostaglandin E2 receptor EP3 subtype (Homo sapiens). In words: Antagonist activity at human EP3 receptor at 1 uM by FLIPR assay. Further details: scale not given: the % may be the effect or the level left. The class given is functional.

T4 sequence (P35408 whole entry): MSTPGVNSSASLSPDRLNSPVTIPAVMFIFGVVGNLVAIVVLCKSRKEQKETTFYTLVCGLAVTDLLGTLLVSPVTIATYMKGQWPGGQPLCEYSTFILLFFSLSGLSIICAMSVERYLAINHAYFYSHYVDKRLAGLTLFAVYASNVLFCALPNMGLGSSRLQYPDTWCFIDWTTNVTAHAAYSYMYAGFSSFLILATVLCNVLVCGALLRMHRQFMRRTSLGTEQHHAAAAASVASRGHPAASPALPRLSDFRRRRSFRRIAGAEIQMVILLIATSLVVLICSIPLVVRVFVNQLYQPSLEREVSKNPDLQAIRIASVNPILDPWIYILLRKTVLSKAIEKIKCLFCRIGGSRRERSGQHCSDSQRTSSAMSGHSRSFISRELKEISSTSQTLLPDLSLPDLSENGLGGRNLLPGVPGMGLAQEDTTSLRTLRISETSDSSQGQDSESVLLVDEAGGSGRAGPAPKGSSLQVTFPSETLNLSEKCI
Chain of Prostaglandin E2 receptor EP2 subtype (P43116 whole entry): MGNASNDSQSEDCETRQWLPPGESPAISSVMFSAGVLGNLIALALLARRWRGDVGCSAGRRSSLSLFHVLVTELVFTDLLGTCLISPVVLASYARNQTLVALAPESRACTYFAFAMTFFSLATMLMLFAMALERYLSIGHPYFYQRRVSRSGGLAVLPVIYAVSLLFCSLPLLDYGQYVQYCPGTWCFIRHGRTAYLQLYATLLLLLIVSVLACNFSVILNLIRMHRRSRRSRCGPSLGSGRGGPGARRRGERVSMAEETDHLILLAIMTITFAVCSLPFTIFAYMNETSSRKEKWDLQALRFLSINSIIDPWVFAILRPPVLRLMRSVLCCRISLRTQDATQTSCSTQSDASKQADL

Compound `Cc1cn(Cc2ccc(Cl)cc2Cl)c2c(-c3nnc(NS(=O)(=O)c4cc(Cl)c(Cl)s4)o3)cc(F)cc12` yielded an IC50 in [1] of 0.01 µM. Further, the fold change (FC) in [2] turned out to be 27. The fraction unbound in data set [3] was 0.002. Also, the remaining at 0.5 h amounted to 46.4% in [4] and 62.7% in data set [5].

Consider `Cc1cn(Cc2ccc3c(c2)OCCO3)c2c(-c3nnc(NS(=O)(=O)c4ccc(F)cc4)o3)cc(F)cc12`, for which the Activity in data set [6] came out at 11%; in [7], 48%.

As for `Cc1cn(Cc2ccc(Cl)cc2Cl)c2c(-c3nnc(NS(=O)(=O)c4cc(F)c(F)cc4F)o3)cc(F)cc12`, in data set [1], the IC50 was determined as 0.002 µM. For the same compound, the fold change (FC) in [2] is 22. Moreover, in [3], the fraction unbound is 0.006. The Activity in [8] is 99%; in data set [9], 94%; in data set [10], 25%; in data set [11], 84%; in data set [12] it was 15%; in data set [13] it was 9%. Also, the Activity in data set [14] stood at 64%; in [15], 21%; in [16] it was 5%; in data set [17] it was 99%; in data set [18], 11%; in data set [19], 3%.

On to `Cc1cn(Cc2ccc(Cl)cc2Cl)c2c(-c3nnc(NC(=O)c4ccc(Cl)cc4Cl)o3)cc(F)cc12`, for which the outcome in data set [20] was inactive. Further, the IC50 in [1] was determined as 1.32 µM. The fold change (FC) in data set [2] stood at 1.

As to `Cc1cn(Cc2ccc(Cl)cc2Cl)c2c(-c3cc(NS(=O)(=O)c4ccc(F)c(F)c4)no3)cc(F)cc12`, the half-maximal inhibitory concentration (IC50) is 0.001 µM in data set [1]; 3.85 µM in the data set on Platelet [21]; 0.785 µM in the data set on Platelet [22]; greater than 20 µM in data set [23]; 19.8 µM in data set [24]; 18.6 µM in data set [25]. The IC50 in data set [26] was 0.6 µM; on Prostacyclin receptor, greater than 20 µM. Further, the fold change (FC) in [2] was 12. Moreover, the fraction unbound in [3] was 0.016. Besides, the values for the remaining at 0.5 h in data set [4] and in data set [5] were 51% and 46.8%, respectively.

As to `Cc1cn(Cc2ccc(Cl)cc2Cl)c2c(-c3cc(NS(=O)(=O)c4cc(Cl)c(Cl)s4)no3)cc(F)cc12`, the values for the IC50 (in data set [1]; with Platelet [21]) were 0.005 µM and 1.04 µM, respectively. The fold change (FC) in data set [2] stood at 67. Further, the remaining at 0.5 h was 57.8% in data set [4] and 46.8% in data set [5].

As for `COc1ccc(Cn2cc(C)c3cc(F)cc(-c4nnc(NS(=O)(=O)c5ccc(F)c(F)c5)o4)c32)cc1`, the figures for the Activity in [27] and in data set [6] were 99% and 35%, respectively.

For `COc1cccc(Cn2cc(C)c3cc(F)cc(-c4nnc(NS(=O)(=O)c5ccc(F)cc5)o4)c32)c1`, the Activity in [6] stood at 62%; in [7], 99%.

With `Cc1cn(Cc2ccc(Cl)cc2Cl)c2c(-c3nnc(NS(=O)(=O)c4ccc(Cl)c(Cl)c4)o3)cc(F)cc12`, the IC50 in [1] amounted to 0.004 µM; with Platelet [21], 2.86 µM. The fold change (FC) in data set [2] came out at 3.5. Moreover, the fraction unbound in data set [3] is 0.028. For the same compound, the remaining at 0.5 h in data set [4] was found to be 44.8%; in data set [5], 72.1%. Further, the Activity is 100% in data set [8]; 16% in data set [9]; -2% in data set [10]; -7% in [11]; -22% in data set [12]; -26% in [13]. Further, the Activity in data set [14] was -1%; in data set [15], -2%; in data set [16] it was -15%; in data set [17], 56%; in data set [18] it was 0%; in data set [19], 3%.

In the case of `Cc1cn(Cc2ccc(Cl)cc2Cl)c2c(-c3nnc(NS(=O)(=O)c4ccc(F)c(F)c4)o3)cc(F)cc12`, the IC50 in [1] is 0.02 µM; with Platelet [21], 2.71 µM. For the same compound, in data set [2], the fold change (FC) amounted to 2.4. For the same compound, the remaining at 0.5 h in [4] was 42.5%. Also, the Activity was 100% in data set [8]; 30% in [9]; -11% in [10]; 32% in [11]; 26% in data set [12]; 13% in data set [13]. The Activity is 41% in data set [14]; 26% in [15]; 22% in [16]; 89% in [17]; 9% in data set [18]; -5% in [19].

For the origin of these results see ChEMBL document CHEMBL1154363, “Heterocyclic 1,7-disubstituted indole sulfonamides are potent and selective human EP3 receptor antagonists” (Bioorg Med Chem Lett, 2009).
